Article PMC5819316, “Structural and Biochemical Characterization of BdsA from Bacillus subtilis WU-S2B, a Key Enzyme in the “4S” Desulfurization Pathway” (Frontiers in Microbiology, 2018)

B1: DBT sulfone monooxygenase BdsA from Bacillus subtilis WU-S2B (enzyme)
chain: MAEQRQLHLAGFFSAGNVTHAHGAWRHVGATNGFLTGEFYKQIARTLERGKFDLLFLPDGLAIEDSYGDNLETGVGLGGQGAVALEPTSVIATMAAVTQRLGLGATVSTTYYPPYHVARVFATLDNLSDGRISWNVVTSLNDSEARNFGVDEHLEHDIRYDRADEFLEAVKKLWSSWSEDALLLDKVGGRFADPKKVQYVNHRGRWLSVRGPLQVPRSRQGEPVILQAGLSPRGRRFAGRWAEAVFSVSPNLDIMRAVYQDIKAHVAAAGRDPEQTKVFTAVMPVLGETEQVARERLEYLNSLVHPEVGLSTLSSHSGLNLSKYPLDTKFSDIVADLGDRHVPTMLQMFSAVAGGGADLTLAELGRRYGTNVGFVPQWAGTAEQIADQLISHFEAGAADGFIISPAYLPGIYEEFVDQVVPLLQQRGVFRTEYEGTTLREHLGLAHPEVGSIR
notes: BdsA (DBT sulfone monooxygenase), Bacillus subtilis WU-S2B; synthesized bdsA gene cloned into the NdeI and XhoI sites of pET-15b; each monomer is composed of 453 amino acids; in the crystal the N-terminus to Gln4 and Ser451 to the C-terminus are not visible; No removal of the His-tag is described; also called apo-BdsA; dibenzothiophene sulfone monooxygenase; source: E. coli BL21 (DE3), purified …

What was measured:
BdsA = target: T1, BdsA (Bacillus subtilis, UniProt Q8GRC7); test: X-ray crystallography, […] A, crystal soaking; assay type: binding; conditions: crystals soaked in 1 mM FMN for 30 min, pH 5.5; one FMN per subunit, active site
T1 construct: monomer 453 residues; homotetramer, ~220 kDa by gel filtration

[1] = target: the molecule itself; test: SEC; Superdex-200 gel filtration in 10 mM Tris-HCl (pH 8.0), 100 mM NaCl; oligomeric state in solution from the elution volume (~220 kDa)

Row | Molecule | X-ray crystallography, 2.4 A, crystal soaking (BdsA) | stoichiometry N [1]
1 | Cc1cc2nc3c(=O)[nH]c(=O)nc-3n(C[C@H](O)[C@H](O)[C@H](O)COP(=O)(O)O)c2cc1C [FMN] | The structure of the tetrameric BdsA–FMN complex contains four FMN molecules | 
2 | B1 |  | 4
